In article PMC7069976, “Improved secretion of glycoproteins using an N-glycan-restricted passport sequence tag recognized by cargo receptor” (Nature Communications, 2020):

How the values were obtained:
ERGL KO HCT116 cells = test: EPO secretion level (ELISA) from ERGL KO HCT116 cells; type: cell-based
Excerpt: The guide RNAs (gRNAs) flanking the target enhancer regions for ERGIC-53 and MCFD2 were designed using ToolGen’s dRGEN synthesis service (Seoul, South Korea). The target DNA sequences of the gRNAs used in the present study were as follows: for MCFD2 deletion, […], and for ERGIC-53 deletion, […]. The gRNA expression plasmids (pRGEN-U6-sgRNA) were purchased from ToolGen. To generate the KO cells of MCFD2 or ERGIC-53, individual gRNA plasmids and a plasmid-expressing Cas9-green fluorescent protein (GFP) (Addgene, catalog #44719) were transiently transfected into HCT116 cells, which are diploid cells suitable for genome editing using the CRISPR/Cas9 method, in a six-well plate using polyethylenimine “Max” (Polysciences Inc., Warrington, PA) and a Cas9:gRNA molar ratio of 1:5 as described previously. At 48 h post transfection, cells with high GFP expression were identified using fluorescence-activated cell sorting with the BD FACSAria II cell sorter (BD Biosciences, San Jose, CA). For knocking out ERGL in the wild-type and ERGIC-53-KO cells, the Guide-it CRISPR/Cas9 System (green/red) (Takara Bio Inc., Kusatsu, Japan) was used for the cloning and expression of target single gRNAs, whose target ERGL DNA sequences were […] and […]. The two constructed pGuide-it Vectors (green and red) were transiently transfected into HCT116 cells. At 48 h post transfection, cells with high ZsGreen1 and tdTomato expression were identified using fluorescence-activated cell sorting. Sorted cells were plated into individual wells of a 96-well plate and then re-plated as single cells in 6 cm dishes. The deletions in the clones were confirmed by polymerase chain reaction and sequencing analysis (Supplementary Figs. 8, 9, 10, and 11).
For expression of the FVIII and FV full-length and deletion mutant proteins in mammalian cells, the codon-optimized FVIII and FV genes were inserted into the p3XFLAG-CMV-14 Expression Vector and p3XFLAG-CMV-9 Expression Vector, respectively (Sigma-Aldrich, St. Louis, MO). For the expression of the wild-type and mutated AAT, EPO, and sFγRIIIa in mammalian cells, the corresponding genes (purchased from FASMAC Co., Ltd., Atsuki, Japan) were inserted into the p3XFLAG-CMV-9 Expression Vector (Sigma-Aldrich). […]
The secreted levels of FVIII and FV antigens in the culture medium were determined with an sandwich enzyme-linked immunosorbent assay (ELISA) method using the VisuLize FVIII Antigen Kit (Affinity Biologicals Inc., Ancaster, ON) and the Asssay Max™ Human Factor V ELISA Kit (ASSAYPRO, MO), respectively. The secreted levels of AAT and EPO antigens in the culture medium were determined with an ELASA method using the anti-AAT antibody (Agilent, Santa Clara, CA) and anti-Flag M2 antibody (Sigma-Aldrich), respectively.

HCT116 cells = test: Intracellular accumulation, western blotting of cell lysates; type: cell-based; conditions: anti-flag western blot, vs EPO-motif
Protocol: Western blots were performed according to methods in previous studies[29],[30]. At 72 h post transfection, the EPO and sFγRIII recombinant proteins were purified with anti-Flag M2 Affinity Gel (Sigma-Aldrich). The gel was washed twice with phosphate-buffered saline, and proteins were eluted with the 3× FLAG tag peptide (Sigma-Aldrich). The purified proteins were subjected to 3–10% gradient sodium dodecyl sulfate-polyacrylamide gel electrophoresis and subsequently transferred to a polyvinylidene difluoride membrane (Millipore, Billerica, MA). After blocking with Blocking One solution (Nacalai Tesque, Kyoto, Japan), the membranes were incubated with monoclonal mouse anti-Flag M2 (Sigma-Aldrich, F1804), anti-human LMAN1 (ERGIC-53) (Proteintech, Tokyo, Japan, 13364), anti-human SDNSF/MCFD2 (R&D System, Minneapolis, MN, MAB2357), and anti-β-actin (Sigma-Aldrich, A2228) antibodies, and then with horseradish peroxidase (HRP)-conjugated secondary antibody [anti-mouse IgG antibody-HRP, GE Healthcare (Piscataway, NJ) and anti-rabbit Ig antibody-HRP, Cell Signaling Technology (Danvers, MA)] in 20 mM Tris-HCl (pH 7.6) containing 150 mM NaCl and 0.05% Tween-20. The protein bands were visualized with Immobilon Western Chemiluminescent HRP substrate solution (Millipore).

Substance: EPO: recombinant Flag-tagged erythropoietin without motif (Fig. 5 prints EPO for mScarlet-I-EPO)
- EPO secretion level (Figure 4D), average (ERGL KO HCT116 cells; average, n = 3, EPO in wild type = 1): 0.7808
- EPO secretion level (Figure 4D) (ERGL KO HCT116 cells; replicate 1): 0.6104
- EPO secretion level (Figure 4D) (ERGL KO HCT116 cells; replicate 2): 0.9026
- EPO secretion level (Figure 4D) (ERGL KO HCT116 cells; replicate 3): 0.8293
- intracellular accumulation (HCT116 cells): a higher level of accumulation in the cells
